The text below walks through data of ChEMBL document CHEMBL4196051, “Pyrazole-pyrazoline as promising novel antimalarial agents: A mechanistic study” (Eur J Med Chem, 2018).

Where only a bound is given, the exact number is not on record here.

Data set [1] is described as follows: Selectivity index, ratio of CC50 for African green monkey Vero cells to EC50 for chloroquine-sensitive Plasmodium falciparum 3D7. Type of data set: toxicity. To be noted: read-out: Ratio CC50/EC50.
For data set [2], the system named is Plasmodium falciparum. Nature of the data set: Antimalarial activity against chloroquine-sensitive Plasmodium falciparum 3D7 infected in red blood cells assessed as reduction in mature schizonts formation after 24 hrs by Giemsa-staining based assay. The data set is classed as functional, organism-based. To be noted: 3D7, 24 h.
Data set [3] is described as follows: Selectivity index, ratio of CC50 for African green monkey Vero cells to EC50 for chloroquine-resistant Plasmodium falciparum RKL9. As to conditions: read-out: Ratio CC50/EC50. The data set is classed as toxicity.
Data set [4] is described as follows: Cytotoxicity against African green monkey Vero cells assessed as reduction in cell viability after 72 hrs by MTT assay. Type of data set: cell-based. As to conditions: chlorocebus sabaeus. (Tetrazolium dyes change colour on reduction, which living cells bring about.)
In data set [5] the test system is Plasmodium falciparum. Kind of data set: Antimalarial activity against chloroquine-resistant Plasmodium falciparum RKL9 infected in red blood cells assessed as reduction in mature schizonts formation after 24 hrs by Giemsa-staining based assay. The data set is classed as functional, organism-based. To be noted: RKL9, 24 h.
A short description of data set [6]: Resistance Index, ratio of EC50 for chloroquine-resistant Plasmodium falciparum RKL9 to EC50 for chloroquine-sensitive Plasmodium falciparum 3D7. Type of data set: functional.
The test system of data set [7] is Plasmodium berghei. Kind of data set: Antimalarial activity against Plasmodium berghei NK65 infected in Swiss albino mouse assessed as reduction in parasitemia at 5 mg/kg, po treated up to day 3 measured at day 4 by Giemsa-staining based microscopic analysis relative to control. The data set is classed as functional. The arrangement: scale not given: the % may be the effect or the level left.

Data set [8] relates to Plasmodium berghei. Kind of data set: Antimalarial activity against Plasmodium berghei NK65 infected in Swiss albino mouse assessed as mean survival days at 5 mg/kg, po treated up to day 3 measured over 30 days (reference value: 7.2 days). Type of data set: functional.
The subject of data set [9] is Plasmodium berghei. Nature of the data set: Antimalarial activity against Plasmodium berghei NK65 infected in Swiss albino mouse assessed as mean survival days at 25 mg/kg, po treated up to day 3 measured over 30 days (reference value: 7.2 days). Type of data set: functional.
In the next data set the test system is mu-oxodimeric heme. Kind of data set: Binding affinity to mu-oxodimeric heme in 0.1M NaOH solution at pH 5.8 by titration analysis.
Data set [10] concerns Plasmodium berghei. Kind of data set: Antimalarial activity against Plasmodium berghei NK65 infected in Swiss albino mouse assessed as mean survival days at 50 mg/kg, po treated up to day 3 measured over 30 days (reference value: 7.2 days). Type of data set: functional.
For data set [11], the system named is Plasmodium berghei. Nature of the data set: Antimalarial activity against Plasmodium berghei NK65 infected in Swiss albino mouse assessed as reduction in parasitemia at 25 mg/kg, po treated up to day 3 measured at day 4 by Giemsa-staining based microscopic analysis relative to control. Type of data set: functional. The arrangement: scale not given: the % may be the effect or the level left.

For data set [12], the system named is Heme. Nature of the data set: Binding affinity to monomeric heme in DMSO/HEPES buffer solution at pH 5.6 by titration analysis.
Data set [13] relates to Heme. Kind of data set: Binding affinity to monomeric heme in DMSO/HEPES buffer solution at pH 7.4 by titration analysis.
Data set [14] deals with Plasmodium berghei. Nature of the data set: Antimalarial activity against Plasmodium berghei NK65 infected in Swiss albino mouse assessed as reduction in parasitemia at 50 mg/kg, po treated up to day 3 measured at day 4 by Giemsa-staining based microscopic analysis relative to control. Type of data set: functional. The arrangement: scale not given: the % may be the effect or the level left.

The subject of data set [15] is Plasmodium falciparum. Kind of data set: Antimalarial activity against chloroquine-resistant Plasmodium falciparum W2 after 48 hrs by LDH assay. Type of data set: functional, organism-based. To be noted: W2, 48 h.
Data set [16] concerns Plasmodium falciparum. Nature of the data set: Antimalarial activity against Plasmodium falciparum. The data set is classed as functional, organism-based.
Data set [17] deals with Plasmodium falciparum. Nature of the data set: Antimalarial activity against chloroquine-sensitive Plasmodium falciparum 3D7 infected in red blood cells assessed as reduction in mature schizonts formation after 72 hrs by Giemsa-staining based assay. The data set is classed as functional, organism-based. To be noted: 3D7, 72 h.
Data set [18] has as its system Heme. Kind of data set: Inhibition of heme crystal growth.

For the compound `Cc1ccc(C2=NN(c3ccc(S(N)(=O)=O)cc3)C(c3cn(-c4ccccc4)nc3-c3ccc(F)cc3)C2)cc1` (configuration not stated), the selectivity ratio in [1] and in [3] was over 73.2 each time. In addition, the 50% effective concentration (EC50) (commonly the midpoint of the concentration-response curve) in the data set on Plasmodium falciparum [2] stood at 2.23 µM. Besides, in [4], the cytotoxic concentration (CC50) (usually the concentration that lowers cell viability or growth by half) at 72 h was over 90.7 µM.
In the case of `Cc1ccc(-c2nn(-c3ccccc3)cc2C2CC(c3ccccc3)=NN2c2ccc(S(N)(=O)=O)cc2)cc1` (configuration not stated), the selectivity ratio in [1] and in [3] was over 98 in each case. The 50% effective concentration (EC50) with Plasmodium falciparum [2] stood at 2.97 µM. In addition, the CC50 at 72 h in data set [4] is over 162 µM.
With `NS(=O)(=O)c1ccc(N2N=C(c3ccc(Cl)cc3Cl)CC2c2cn(-c3ccccc3)nc2-c2ccccc2)cc1` (configuration not stated), the selectivity ratio in [1] and in data set [3] was over 162 in each case. The EC50 with Plasmodium falciparum [2] was found to be 4.58 µM. Further, in data set [4], the half-maximal cytotoxic concentration (CC50) at 72 h is over 438 µM.
For the compound `COc1ccc(C2=NN(c3ccc(S(N)(=O)=O)cc3)C(c3cn(-c4ccccc4)nc3-c3ccc(OC)cc3)C2)cc1` (configuration not stated), the selectivity ratio in data set [1] and in data set [3] was 78.9 in each case. In the data set on Plasmodium falciparum [2], the EC50 turned out to be 2.26 µM. Further, the CC50 at 72 h in data set [4] is 104 µM.
For `NS(=O)(=O)c1ccc(N2N=C(c3ccc(F)cc3)CC2c2cn(-c3ccccc3)nc2-c2ccc(F)cc2)cc1` (configuration not stated), the selectivity ratio in data set [1] and in data set [3] was over 212 each time. In addition, the half-maximal effective concentration (EC50) in the data set on Plasmodium falciparum [2] came to 6.36 µM. For the same compound, the CC50 at 72 h in [4] was over 753 µM.
Regarding `COc1ccc(C2=NN(c3ccc(S(N)(=O)=O)cc3)C(c3cn(-c4ccccc4)nc3-c3ccc(F)cc3)C2)cc1` (configuration not stated), the selectivity ratio in data set [1] and in [3] was over 56.4 in each case. The EC50 was found to be 1.65 µM with Plasmodium falciparum [2] and 2.04 µM in the data set with Plasmodium falciparum [5]. Further, in [6], the Ratio EC50 is 1.44. Further, the CC50 at 72 h in data set [4] was over 53.1 µM.
With `NS(=O)(=O)c1ccc(N2N=C(c3ccc(Br)cc3)CC2c2cn(-c3ccccc3)nc2-c2ccc(F)cc2)cc1` (configuration not stated), the selectivity ratio in [1] and in data set [3] was 25.9 throughout. In addition, the EC50 with Plasmodium falciparum [2] came out at 3.08 µM. Moreover, the CC50 at 72 h in data set [4] is 49.4 µM.
Take `NS(=O)(=O)c1ccc(N2N=C(c3ccc(O)cc3)CC2c2cn(-c3ccccc3)nc2-c2ccc(F)cc2)cc1` (configuration not stated): the selectivity ratio in data set [1] and in data set [3] was 36.9 each time. The values for the half-maximal effective concentration (EC50) in the data set with Plasmodium falciparum [2] and in the data set with Plasmodium falciparum [5] were 1.57 µM and 2.02 µM, respectively. In addition, the Ratio EC50 in data set [6] came to 1.29. The CC50 at 72 h in data set [4] was 32 µM.
On to `COc1ccc(C2=NN(c3ccc(S(N)(=O)=O)cc3)C(c3cn(-c4ccccc4)nc3-c3ccc(Cl)cc3)C2)cc1` (configuration not stated), for which the selectivity ratio in data set [1] and in data set [3] was 33.2 throughout. Also, the EC50 in the data set with Plasmodium falciparum [2] was determined as 1.61 µM; in the data set with Plasmodium falciparum [5] it was 2.12 µM. The Ratio EC50 in data set [6] is 1.31. In addition, the CC50 at 72 h in data set [4] turned out to be 31.3 µM.
As for `CCN(CC)CCCC(C)Nc1ccnc2cc(Cl)ccc12` (configuration not stated) [CHLOROQUINE], the concentration giving a half-maximal response (EC50) worked out at 2.97 µM with Plasmodium falciparum [2] and 11.2 µM in the data set with Plasmodium falciparum [5]. In addition, the Activity in the data set on Plasmodium berghei [7] is on record as 97.1%. For the same compound, in the data set with Plasmodium berghei [8], the MSD is 30 days.
On to `COc1cccc(C2=NN(c3ccc(S(N)(=O)=O)cc3)C(c3cn(-c4ccccc4)nc3-c3ccc(C)cc3)C2)c1OC` (configuration not stated), for which the selectivity ratio in [1] and in data set [3] was over 60 each time. Further, the concentration for a half-maximal effect (EC50) worked out at 1.61 µM with Plasmodium falciparum [2] and 1.55 µM in the data set with Plasmodium falciparum [5]. Also, the Ratio EC50 in data set [6] turned out to be 0.97. Besides, the CC50 at 72 h in data set [4] is over 57.4 µM.
In the case of `NS(=O)(=O)c1ccc(N2N=C(c3ccc(F)cc3)CC2c2cn(-c3ccccc3)nc2-c2ccccc2)cc1` (configuration not stated), the selectivity ratio in [1] and in data set [3] was over 225 throughout. In addition, the EC50 with Plasmodium falciparum [2] was 6.67 µM. Moreover, the cytotoxic concentration (CC50) at 72 h in data set [4] was over 807 µM.
`NS(=O)(=O)c1ccc(N2N=C(c3ccc(Cl)cc3)CC2c2cn(-c3ccccc3)nc2-c2ccccc2)cc1` (configuration not stated): the selectivity ratio in data set [1] and in [3] was over 111 throughout. For the same compound, in the data set with Plasmodium falciparum [2], the concentration for a half-maximal effect (EC50) was 3.35 µM. Besides, the CC50 at 72 h in data set [4] was over 207 µM.
Turning to `COc1ccc(C2=NN(c3ccc(S(N)(=O)=O)cc3)C(c3cn(-c4ccccc4)nc3-c3ccc(C)cc3)C2)cc1` (configuration not stated), the MSD stood at 13.4 days in the data set with Plasmodium berghei [9] and 19.8 days with Plasmodium berghei [10]. The log K turned out to be 5.19 with mu-oxodimeric heme, 5.58 in the data set on Heme [12] and 5.12 in the data set on Heme [13]. The selectivity ratio in data set [1] and in [3] was over 46.8 throughout. Besides, the half-maximal effective concentration (EC50) worked out at 1.38 µM with Plasmodium falciparum [2] and 1.31 µM in the data set on Plasmodium falciparum [5]. The results for the Activity in the data set on Plasmodium berghei [11] and with Plasmodium berghei [14] were 68.42% and 82.49%, respectively. For the same compound, in data set [6], the Ratio EC50 stood at 0.94. The half-maximal cytotoxic concentration (CC50) at 72 h in [4] is over 36.6 µM.
As to `C[n+]1c2ccc(Br)cc2cc2[nH]c3ccc(Br)cc3c21`, the IC50 (as a rule, the concentration that inhibits the measured activity by half) in the data set with Plasmodium falciparum [15] came to 4 µM.
Consider `COc1ccc(C2=NN(c3ccc(S(N)(=O)=O)cc3)C(c3cn(-c4ccccc4)nc3-c3ccccc3)C2)cc1` (configuration not stated), for which the selectivity ratio in data set [1] and in [3] was 51.4 each time. Further, the EC50 is 1.42 µM in the data set with Plasmodium falciparum [2] and 1.78 µM in the data set on Plasmodium falciparum [5]. Also, the Ratio EC50 in data set [6] was determined as 1.25. Also, the CC50 at 72 h in data set [4] was 40.2 µM.
In turn, `Clc1ccccc1C(c1ccccc1)(c1ccccc1)n1ccnc1` [CLOTRIMAZOLE] yielded a 50% inhibitory concentration (IC50) in the data set on Plasmodium falciparum [16] of 12.9 µM.
As to `NS(=O)(=O)c1ccc(N2N=C(c3ccc(Cl)cc3)CC2c2cn(-c3ccccc3)nc2-c2ccc(Cl)cc2)cc1` (configuration not stated), the selectivity ratio in data set [1] and in data set [3] was over 99 in each case. Moreover, in the data set with Plasmodium falciparum [2], the EC50 was 2.8 µM. In addition, the CC50 at 72 h in data set [4] was over 164 µM.
In the case of `Cc1ccc(C2=NN(c3ccc(S(N)(=O)=O)cc3)C(c3cn(-c4ccccc4)nc3-c3ccc(C)cc3)C2)cc1` (configuration not stated), the selectivity ratio in [1] and in data set [3] was over 52.8 each time. Further, the EC50 in the data set with Plasmodium falciparum [2] stood at 1.43 µM; with Plasmodium falciparum [5], 1.64 µM. The Ratio EC50 in data set [6] was determined as 1.14. The CC50 at 72 h in data set [4] was over 41.5 µM.
For the compound `COc1ccc(/C=C(\C#N)c2nc3ccccc3[nH]2)cc1`, the IC50 in the data set on Plasmodium falciparum [17] is 0.069 µM.
For `Clc1ccc(COC(Cn2ccnc2)c2ccc(Cl)cc2Cl)c(Cl)c1` (configuration not stated) [MICONAZOLE], it took 21.4 µM to reach half-maximal inhibition with Heme [18] (IC50).
As for `NS(=O)(=O)c1ccc(N2N=C(c3ccc(O)cc3)CC2c2cn(-c3ccccc3)nc2-c2ccccc2)cc1` (configuration not stated), the selectivity ratio in [1] and in data set [3] was over 98 each time. Besides, in the data set on Plasmodium falciparum [2], the EC50 worked out at 3.05 µM. In addition, the CC50 at 72 h in data set [4] is over 161 µM.
